We go through 1 substance from paper PMC3273469, “BACE1 Inhibition Induces a Specific Cerebrospinal Fluid β-Amyloid Pattern That Identifies Drug Effects in the Central Nervous System” (PLoS ONE, 2012).

The assay deals with BACE1 (Homo sapiens, UniProt P56817). Description: Cellular Aβ[…] secretion ELISA (SH-SY5Y APP695wt cells); IP-MS Aβ pattern. The class given is cell-based. (In an ELISA, binding on a coated surface is turned into a signal by an enzyme label.)
BACE1, sequence (P56817 46-501): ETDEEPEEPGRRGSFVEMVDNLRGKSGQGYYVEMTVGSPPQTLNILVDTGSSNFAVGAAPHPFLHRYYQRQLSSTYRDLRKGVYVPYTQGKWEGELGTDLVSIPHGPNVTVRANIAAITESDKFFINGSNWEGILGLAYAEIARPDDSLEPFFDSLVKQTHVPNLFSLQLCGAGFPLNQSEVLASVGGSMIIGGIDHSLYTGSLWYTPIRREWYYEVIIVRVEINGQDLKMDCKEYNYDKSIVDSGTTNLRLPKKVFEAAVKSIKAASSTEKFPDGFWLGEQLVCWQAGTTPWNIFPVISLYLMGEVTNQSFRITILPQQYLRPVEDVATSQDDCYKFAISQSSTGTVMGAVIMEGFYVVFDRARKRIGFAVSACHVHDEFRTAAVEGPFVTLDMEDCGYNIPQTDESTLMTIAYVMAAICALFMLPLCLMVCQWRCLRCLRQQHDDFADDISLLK

For AZ-20, the midpoint of inhibition, the IC50, lay at 8.2 ± 1.4 nM.
